Target: T1, cPLA2 (Homo sapiens, UniProt P47712)
T1 sequence (P47712 1-749): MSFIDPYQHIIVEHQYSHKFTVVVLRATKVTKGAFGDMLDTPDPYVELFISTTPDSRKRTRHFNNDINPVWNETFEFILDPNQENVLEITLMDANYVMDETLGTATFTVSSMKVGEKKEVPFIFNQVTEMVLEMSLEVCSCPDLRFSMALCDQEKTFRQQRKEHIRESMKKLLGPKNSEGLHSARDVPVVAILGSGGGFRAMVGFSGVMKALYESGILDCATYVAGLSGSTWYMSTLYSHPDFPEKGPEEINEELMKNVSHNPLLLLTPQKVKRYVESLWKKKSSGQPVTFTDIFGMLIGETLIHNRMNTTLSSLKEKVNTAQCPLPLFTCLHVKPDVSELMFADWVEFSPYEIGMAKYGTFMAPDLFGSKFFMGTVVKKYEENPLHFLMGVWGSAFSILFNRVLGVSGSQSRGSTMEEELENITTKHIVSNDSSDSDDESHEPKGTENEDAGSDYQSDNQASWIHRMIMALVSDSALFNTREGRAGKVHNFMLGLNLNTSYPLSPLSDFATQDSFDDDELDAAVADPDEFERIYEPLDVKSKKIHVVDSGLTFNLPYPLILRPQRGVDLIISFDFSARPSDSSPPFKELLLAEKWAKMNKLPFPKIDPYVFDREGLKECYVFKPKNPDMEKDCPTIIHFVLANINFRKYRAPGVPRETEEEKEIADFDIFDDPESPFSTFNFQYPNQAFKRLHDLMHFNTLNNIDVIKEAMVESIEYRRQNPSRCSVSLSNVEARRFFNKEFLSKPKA
Experiment: Coumarin Assay (cPLA2 inhibition)
Type: biochemical
Settings: for inhibition at 80 µM: CONCENTRATION 80 micromolar; for inhibition at 70 µM: CONCENTRATION 70 micromolar; for inhibition at 46 µM: CONCENTRATION 46 micromolar; for inhibition at 8 µM: CONCENTRATION 8 micromolar; for inhibition at 48 µM: CONCENTRATION 48 micromolar; for inhibition at 2.5 µM: CONCENTRATION 2.5 micromolar; for inhibition at 1.6 µM: CONCENTRATION 1.6 micromolar
Method: Table I reports data for the compounds described in the examples above in cPLA2 inhibition assays (described below). In the data columns of Tables I and II, assay results are reported as a percent inhibition at the concentration specified.
7-hydroxycoumarinyl 6-heptenoate was used as a monomeric substrate for cPLA2 as reported previously (Huang, Z. et al., 1994, Nalytical Biochemistry 222, 110-115). Inhibitors were mixed with 200 μL assay buffer (80 mM Heped, pH 7.5, 1 mM EDTA) containing 60 μM 7-hydroxycoumarinyl 6-heptenoate. The reaction was initiated by adding 4 μg cPLA2 in 50 μL assay buffer. Hydrolysis of the 7-hydroxycounarimyl 6-heptenoate ester was monitored in a fluorometer by exciting at 360 nm and monitoring emission at 460 nm. Enzyme activity is proportional to the increase in emission at 460 nm per minute. In the presence of a cPLA2 inhibitor, the rate of increase is less. The percent inhibition for corresponding concentrations of compounds herein in this Coumarin assay are provided below in Table I.

[1] = CONCENTRATION 50 micromolar, read-out: PERCENT INHIBITION @
[2] = CONCENTRATION 1.25 micromolar, read-out: PERCENT INHIBITION @

**Q.** Which inhibition at 80 µM (read-out: PERCENT INHIBITION @) does the source give for `O=C(O)Cc1cn(CC2CC2)c2ccc(-c3cccs3)cc12` [Example 78, 2-[1-(cyclopropylmethyl)-5-(2-thienyl)-1H-indol-3-yl]acetic acid] here?
**A.** 50%

**Q.** And the inhibition at 110 µM (CONCENTRATION 110 micromolar, read-out: PERCENT INHIBITION @)?
**A.** 50%

**Q.** For `O=C(O)Cc1cn(CC2CC2)c2ccc(-c3cccc(C(F)(F)F)c3)cc12` [Example 79, 2-{1-(cyclopropylmethyl)-5-[3-(trifluoromethyl)phenyl]-1H-indol-3-yl}acetic acid], which inhibition at 60 µM (CONCENTRATION 60 micromolar, read-out: PERCENT INHIBITION @) is on record?
**A.** 50%

**Q.** What about the inhibition at 65 µM (CONCENTRATION 65 micromolar, read-out: PERCENT INHIBITION @) of the same molecule?
**A.** 50%

**Q.** Which results are given for `O=C(O)Cc1cn(Cc2ccccc2)c2ccc(-c3ccccc3)cc12` [Example 81, 2-(1-benzyl-5-phenyl-1H-indol-3-yl)acetic acid]?
**A.** inhibition at 70 µM (read-out: PERCENT INHIBITION @): 50%; inhibition at 100 µM (CONCENTRATION 100 micromolar, read-out: PERCENT INHIBITION @): 46%

**Q.** For `O=C1NC(=O)/C(=C\c2cn(CCCOc3cccc(Cc4ccccc4)c3)c3ccccc23)S1` [Example 82A, 5-((E)-{1-[3-(3-benzylphenoxy)propyl]-1H-indol-3-yl}methylidene)-1,3-thiazolane-2,4-dione], which inhibition at 46 µM (read-out: PERCENT INHIBITION @) is on record?
**A.** 50%

**Q.** And the inhibition at 50 µM [1]?
**A.** 50%

**Q.** `O=C(O)CN1C(=O)S/C(=C/c2cn(CCCOc3cccc(Cc4ccccc4)c3)c3ccccc23)C1=O` [Example 82C, 2-[5-((E)-{1-[3-(3-benzylphenoxy)propyl]-1H-indol-3-yl}methylidene)-2,4-dioxo-1,3-thiazolan-3-yl]acetic acid] was tested. Which inhibition at 8 µM (read-out: PERCENT INHIBITION @) did it give?
**A.** 50%

**Q.** What about the inhibition at 10 µM (CONCENTRATION 10 micromolar, read-out: PERCENT INHIBITION @) of the same molecule?
**A.** 50%

**Q.** Which inhibition at 48 µM (read-out: PERCENT INHIBITION @) does the source give for `O=C(O)CCc1cn(CCCOc2cccc(Cc3ccccc3)c2)c2ccccc12` [Example 83, 3-{1-[3-(3-benzylphenoxy)propyl]-1H-indol-3-yl}propanoic acid] here?
**A.** 50%

**Q.** What about the inhibition at 70 µM (read-out: PERCENT INHIBITION @) of the same molecule?
**A.** 50%

**Q.** Which results are given for `Cc1c(Cc2ccc(C(=O)O)cc2)c2cc(Cl)ccc2n1C(c1ccccc1)c1ccccc1` [Example 88, 4-[(1-benzhydryl-5-chloro-2-methyl-1H-indol-3-yl)methyl]benzoic acid]?
**A.** PERCENT INHIBITION @ (CONCENTRATION 1.25 micromolar): 53%; inhibition at 1.25 µM [2]: 50%; inhibition at 1.32 µM (CONCENTRATION 1.32 micromolar, read-out: PERCENT INHIBITION @): 50%

**Q.** For `O=C(Cc1cn(Cc2ccc(C(F)(F)F)cc2C(F)(F)F)c2ccc(OCc3ccccc3)cc12)Nc1cccc(C(=O)O)c1` [Example 106, 3-[(2-{5-(benzyloxy)-1-[2,4-bis(trifluoromethyl)benzyl]-1H-indol-3-yl}acetyl)amino]benzoic acid], which inhibition at 7 µM (CONCENTRATION 7 micromolar, read-out: PERCENT INHIBITION @) is on record?
**A.** 50%

**Q.** And the inhibition at 12 µM (CONCENTRATION 12 micromolar, read-out: PERCENT INHIBITION @)?
**A.** 50%

**Q.** What does the source list for `Cc1c(C(=O)O)c2cc(OCc3ccccc3)ccc2n1Cc1ccc(C(F)(F)F)cc1C(F)(F)F` [Example 107, 5-(benzyloxy)-1-[2,4-bis(trifluoromethyl)benzyl]-2-methyl-1H-indole-3-carboxylic acid]?
**A.** inhibition at 37 µM (CONCENTRATION 37 micromolar, read-out: PERCENT INHIBITION @): 50%; inhibition at 50 µM [1]: 43%; inhibition at 71 µM (CONCENTRATION 71 micromolar, read-out: PERCENT INHIBITION @): 50%; inhibition at 80 µM (read-out: PERCENT INHIBITION @): 50%

**Q.** For `Cc1c(C(=O)Nc2cc(C(=O)O)cc(C(=O)O)c2)c2cc(OCc3ccccc3)ccc2n1Cc1ccc(C(F)(F)F)cc1C(F)(F)F` [Example 108, 5-[({5-(benzyloxy)-1-[2,4-bis(trifluoromethyl)benzyl]-2-methyl-1H-indol-3-yl}carbonyl)amino]isophthalic acid], which inhibition at 6.25 µM (CONCENTRATION 6.25 micromolar, read-out: PERCENT INHIBITION @) is on record?
**A.** 67%

**Q.** And the inhibition at 20 µM (CONCENTRATION 20 micromolar, read-out: PERCENT INHIBITION @)?
**A.** 15%

**Q.** What about the inhibition at 48 µM (read-out: PERCENT INHIBITION @) of the same molecule?
**A.** 50%

**Q.** What about the inhibition at 50 µM [1] of the same molecule?
**A.** 46%

**Q.** What does the source list for `Cc1c(C(=O)O)c2cc(OCc3ccccc3)ccc2n1Cc1ccc2ccccc2c1` [Example 109, 5-(benzyloxy)-2-methyl-1-(2-naphthylmethyl)-1H-indole-3-carboxylic acid]?
**A.** PERCENT INHIBITION @ (CONCENTRATION 50 micromolar): 25%; inhibition at 50 µM [1]: 28%

**Q.** How did the inhibition at 46 µM (read-out: PERCENT INHIBITION @) turn out when `Cc1c(C(=O)Nc2cc(C(=O)O)cc(C(=O)O)c2)c2cc(OCc3ccccc3)ccc2n1Cc1ccc2ccccc2c1` [Example 110, 5-({[5-(benzyloxy)-2-methyl-1-(2-naphthylmethyl)-1H-indol-3-yl]carbonyl}amino)isophthalic acid] was run?
**A.** 50%

**Q.** And the inhibition at 47 µM (CONCENTRATION 47 micromolar, read-out: PERCENT INHIBITION @)?
**A.** 50%

**Q.** `Cc1c(C(=O)O)c2cc(OCc3ccccc3)ccc2n1Cc1ccccc1` [Example 111, 1-benzyl-5-(benzyloxy)-2-methyl-1H-indole-3-carboxylic acid] was tested. Which “PERCENT INHIBITION @” value (CONCENTRATION 50 micromolar) did it give?
**A.** 15%

**Q.** And the inhibition at 50 µM [1]?
**A.** 16%

**Q.** Which inhibition at 2.5 µM (read-out: PERCENT INHIBITION @) does the source give for `O=C(Nc1cccc(C(=O)O)c1)C(=O)c1c(CSc2ccc3ccccc3c2)n(Cc2ccc(Cl)cc2)c2ccc(OCc3ccccc3)cc12` [Example 112, 3-[(2-{5-(benzyloxy)-1-(4-chlorobenzyl)-2-[(2-naphthylsulfanyl)methyl]-1H-indol-3-yl}-2-oxoacetyl)amino]benzoic acid] here?
**A.** 53%

**Q.** Which results are given for `Cn1c(CSc2ccc3ccccc3c2)c(C(=O)C(=O)Nc2cccc(C(=O)O)c2)c2cc(OCc3ccccc3)ccc21` [Example 113, 3-[(2-{5-(benzyloxy)-1-methyl-2-[(2-naphthylsulfanyl)methyl]-1H-indol-3-yl}-2-oxoacetyl)amino]benzoic acid]?
**A.** inhibition at 7.5 µM (CONCENTRATION 7.5 micromolar, read-out: PERCENT INHIBITION @): 50%; inhibition at 8 µM (read-out: PERCENT INHIBITION @): 50%

**Q.** How did the inhibition at 1.6 µM (read-out: PERCENT INHIBITION @) turn out when `Cc1cc(Cc2cn(C(c3ccccc3)c3ccccc3)c3cc(Cl)ccc23)cc(C)c1OCC(=O)O` [Example 117, 2-{4-[(1-benzhydryl-6-chloro-1H-indol-3-yl)methyl]-2,6-dimethylphenoxy}acetic acid] was run?
**A.** 50%

**Q.** For `COc1cc(OCC(=O)O)ccc1Cc1cn(C(c2ccccc2)c2ccccc2)c2cc(Cl)ccc12` [Example 118, 2-{4-[(1-benzhydryl-6-chloro-1H-indol-3-yl)methyl]-3-methoxyphenoxy}acetic acid], which inhibition at 0.6 µM (CONCENTRATION 0.6 micromolar, read-out: PERCENT INHIBITION @) is on record?
**A.** 50%

**Q.** `O=C(O)COc1ccc(Cc2cn(C(c3ccccc3)c3ccccc3)c3cc(Cl)ccc23)cc1` [Example 119, 2-{4-[(1-benzhydryl-6-chloro-1H-indol-3-yl)methyl]phenoxy}acetic acid] was tested. Which inhibition at 2.5 µM (read-out: PERCENT INHIBITION @) did it give?
**A.** 50%

**Q.** With `O=C(O)COc1ccc(Cc2cn(C(c3ccccc3)c3ccccc3)c3cc(Cl)ccc23)c(Cl)c1` [Example 120, 2-{4-[(1-benzhydryl-6-chloro-1H-indol-3-yl)methyl]-3-chlorophenoxy}acetic acid] as the molecule, how does the inhibition at 1 µM (CONCENTRATION 1 micromolar, read-out: PERCENT INHIBITION @) read?
**A.** 50%

**Q.** With `COc1cc(Cc2cn(C(c3ccccc3)c3ccccc3)c3cc(Cl)ccc23)ccc1OCC(=O)O` [Example 121, 2-{4-[(1-benzhydryl-6-chloro-1H-indol-3-yl)methyl]-2-methoxyphenoxy}acetic acid] as the molecule, how does the inhibition at 1.6 µM (read-out: PERCENT INHIBITION @) read?
**A.** 20%

**Q.** How did the inhibition at 1.25 µM [2] turn out when `O=C(O)/C=C/COc1ccc(Cc2cn(C(c3ccccc3)c3ccccc3)c3cc(Cl)ccc23)cc1` [Example 122, (E)-4-{4-[(1-benzhydryl-6-chloro-1H-indol-3-yl)methyl]phenoxy}-2-butenoic acid] was run?
**A.** 64%

**Q.** `O=C(O)CCC(=O)Nc1ccc(Cc2cn(C(c3ccccc3)c3ccccc3)c3cc(Cl)ccc23)cc1` [Example 123, 4-{4-[(1-benzhydryl-6-chloro-1H-indol-3-yl)methyl]anilino}-4-oxobutanooic acid] was tested. Which “PERCENT INHIBITION @” value (CONCENTRATION 1.2 micromolar) did it give?
**A.** 50%

— US6500853B1, “Inhibitors of phospholipase enzymes” (Genetics Institute, LLC, priority 1998, dated 2002)
